Substitutions are numbered along the chain they refer to. Values belong to the molecule of their own block, whether it stands above or below them.
Columns and labels:
[1] = biological target: T1, MCT1 (Homo sapiens, UniProt P53985); test: HEK cell intracellular pH (BCECF) / phloretin inhibition assay; assay type: cell-based; details: HEK cells; for effect on the intracellular pH response to lactate: applied together with lactate
T1 sequence (P53985 1-500): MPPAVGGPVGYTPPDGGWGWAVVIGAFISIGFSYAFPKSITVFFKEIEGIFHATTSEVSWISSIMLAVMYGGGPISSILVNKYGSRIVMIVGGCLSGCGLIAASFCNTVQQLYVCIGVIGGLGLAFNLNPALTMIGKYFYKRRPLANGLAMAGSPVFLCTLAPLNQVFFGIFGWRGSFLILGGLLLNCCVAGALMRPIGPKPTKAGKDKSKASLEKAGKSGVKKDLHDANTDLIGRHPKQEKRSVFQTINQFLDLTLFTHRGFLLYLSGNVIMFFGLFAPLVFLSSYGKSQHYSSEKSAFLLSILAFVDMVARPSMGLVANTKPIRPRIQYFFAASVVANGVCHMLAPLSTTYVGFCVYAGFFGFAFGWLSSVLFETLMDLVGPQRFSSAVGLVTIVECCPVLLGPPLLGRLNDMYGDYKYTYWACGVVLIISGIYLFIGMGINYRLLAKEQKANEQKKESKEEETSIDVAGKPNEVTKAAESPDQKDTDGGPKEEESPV
Description: Because MCT1 transports both the carboxylate anion and the corresponding proton, a pH measuring assay was developed to measure net transport of protons into the cytoplasm. Intracellular pH can be measured by a pH-sensitive fluorescent dye such as BCECF. […] In the phloretin inhibition assay, the HEK cells are first exposed to a plurality of solutions containing various concentrations of the test compound (in FIG. 3, the model test compound is lactate) and then to the same solutions to which have been added a set (0.25 mM) concentration of phloretin. Thus, FIG. 3 is a graph of lactate concentration ([L]) versus the percent of maximum pH change found with administration of the highest concentration of the test compound (lactate) alone. […] This is because MCT1 co-transports lactate and a proton into the HEK cells, causing their internal pH to decrease. This pH lowering effect is shown by the characteristic reverse-S-shaped dose response upper curve in FIG. 3. When the cells are exposed to the solutions containing both lactate and phloretin, the phloretin inhibits the lactate uptake by MCT1 and there is little pH change in the cells, as shown by the relatively flat lower curve in FIG. 3. The phloretin inhibition assay can also be used to determine those carboxylic acids that are actively transported MCT substrates from those that are only passively absorbed across the cell membrane. In the latter case, when a passive absorbed acid is applied to HEK cells, there is an intracellular acidification, which occurs both with and without phloretin.
FIG. 4 is a graph of 2-TPGA concentration ([2-TPGA]) versus the relative percent decrease in intracellular pH compared to a standard decrease in intracellular pH caused by exposure of the cells to 20 mM lactate solution. When 0.25 mM phloretin was applied to these cells in addition to 2-TPGA, MCT1 transport was blocked and no significant pH change was detected.
FIG. 5 is a graph of sulfasalazine concentration ([sulfasalazine]) versus the relative percent decrease in intracellular pH compared to a standard decrease in intracellular pH caused by exposure of the cells to 20 mM lactate solution.

[2] = biological target: T1, MCT1; details: cited from earlier work
[3] = biological target: T2, MCT4 (Homo sapiens, UniProt O15427); details: cited from earlier work
T2 sequence (O15427 1-465): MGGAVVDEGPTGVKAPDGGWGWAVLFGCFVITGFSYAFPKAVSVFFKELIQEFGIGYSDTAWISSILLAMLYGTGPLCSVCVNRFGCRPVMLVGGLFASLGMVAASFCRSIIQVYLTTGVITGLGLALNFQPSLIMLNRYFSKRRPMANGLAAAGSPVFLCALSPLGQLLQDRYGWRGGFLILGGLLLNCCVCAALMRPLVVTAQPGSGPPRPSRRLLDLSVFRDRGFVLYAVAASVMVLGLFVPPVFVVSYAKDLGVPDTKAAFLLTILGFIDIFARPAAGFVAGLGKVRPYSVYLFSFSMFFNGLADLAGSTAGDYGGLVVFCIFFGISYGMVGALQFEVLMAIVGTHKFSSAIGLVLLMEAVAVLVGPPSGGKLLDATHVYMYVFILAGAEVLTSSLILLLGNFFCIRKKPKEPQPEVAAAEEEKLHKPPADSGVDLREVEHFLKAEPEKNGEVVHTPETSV

[4] = biological target: T2, MCT4; test: Xenopus oocyte ROMK electrophysiological pH assay, MCT4; assay type: cell-based; design: The complete open reading frame was cloned into a Xenopus oocyte expression plasmid; expressed in transfected cells; host or cells: Xenopus oocytes injected with cRNA
[5] = biological target: T3, MCT1 (Homo sapiens, UniProt P53985, D490E); test: Xenopus oocyte ROMK electrophysiological pH assay, MCT1; assay type: cell-based
T3 sequence (P53985 1-500 D490E): T1 sequence (P53985 1-500) with D490E

SMILES: O=C(O)C(=O)c1cccs1 [Compound 2-TPGA, 2-thiophene glyoxylic acid]
substrate status from intracellular pH change with and without 0.25 mM phloretin ([1]; FIG. 4): substrate for, and is actively transported by, MCT1

SMILES: CC(O)C(=O)O (centres unmarked) [lactate]
intracellular pH change when applied alone [1]: dose-dependent intracellular acidification
affinity for lactate [2]: ~2 mM
affinity for lactate [3]: ~40 mM
effect on ROMK potassium current ([4]; oocytes co-expressing ROMK and MCT4, 10 mM lactate solution): strong inhibition of the potassium current
effect on ROMK potassium current ([5]; oocytes co-expressing ROMK and MCT1, 10 mM lactate solution): strong inhibition of the potassium current

SMILES: O=C(CCc1ccc(O)cc1)c1c(O)cc(O)cc1O [phloretin]
intracellular pH change when applied alone [1]: does not cause an intracellular pH change
effect on the intracellular pH response to lactate [1]: completely blocks the lactate response
effect of co-application with lactate on the potassium current ([4]; oocytes co-expressing ROMK and MCT4, 350 μM phloretin and 10 mM lactate): completely blocks the effect of lactate on the potassium current
effect of co-application with lactate on the potassium current ([5]; oocytes co-expressing ROMK and MCT1, 350 μM phloretin and 10 mM lactate): completely blocks the effect of lactate on the potassium current

effect on the intracellular pH response to lactate [1]: inhibitor of MCT1
SMILES: O=C(O)c1cc(/N=N/c2ccc(S(=O)(=O)Nc3ccccn3)cc2)ccc1O [sulfasalazine]

Source: patent US20090092553A1, “MONOCARBOXYLATE TRANSPORTERS EXPRESSED IN CANCER CELLS” (Xenoport,Inc., priority 2003, published 2009)
